# Laboratory results as given in paper PMC11778240, “Synthesis and preclinical evaluation of tigilanol tiglate analogs as latency-reversing agents for the eradication of HIV” (Science Advances, 2025).
# Several values for one entry are separate records, joined by “and”; a condition that tells them apart may be missing. Equal entries are not always repeated. Where two headings read alike, the source gives them in different places.
# Experiments:
# PKC-β-I = molecular target: T1, PKC-β-I (Homo sapiens, UniProt P05771); test: Cell-free PKC competition binding assay against 3H-PDBu; conditions: for PKC-β selectivity: Fig. 7A, PKC-β over PKC-δ; for PKC binding affinity and selectivity in words / decrease in PKC binding affinity / potency compared to EBC-46: PKC-β and PKC-δ; for logKi (best-fit value), PKC-β-I: log of Ki in nM
# T1 construct: purchased Invitrogen
# T1 sequence (P05771 whole entry): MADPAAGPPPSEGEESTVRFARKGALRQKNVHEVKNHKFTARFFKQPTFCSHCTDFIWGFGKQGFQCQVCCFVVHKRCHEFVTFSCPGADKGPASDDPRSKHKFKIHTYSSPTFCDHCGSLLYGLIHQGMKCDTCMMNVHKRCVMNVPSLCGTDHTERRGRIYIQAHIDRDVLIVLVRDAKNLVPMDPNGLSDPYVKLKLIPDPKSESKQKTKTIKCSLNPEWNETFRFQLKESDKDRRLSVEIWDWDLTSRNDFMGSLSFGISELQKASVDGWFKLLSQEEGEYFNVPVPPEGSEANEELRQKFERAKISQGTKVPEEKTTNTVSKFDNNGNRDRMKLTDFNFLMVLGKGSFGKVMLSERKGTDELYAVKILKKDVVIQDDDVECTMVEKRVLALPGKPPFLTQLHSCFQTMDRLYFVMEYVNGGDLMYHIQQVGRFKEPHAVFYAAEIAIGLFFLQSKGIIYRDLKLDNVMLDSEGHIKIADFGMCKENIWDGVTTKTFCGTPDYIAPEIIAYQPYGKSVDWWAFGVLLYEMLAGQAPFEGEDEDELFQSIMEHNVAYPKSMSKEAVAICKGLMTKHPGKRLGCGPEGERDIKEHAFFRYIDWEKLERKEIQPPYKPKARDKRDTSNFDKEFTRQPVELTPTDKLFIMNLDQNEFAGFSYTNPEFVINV
# From the text: (§1) With a diverse library of compounds bearing unique functionalities on the A-, B-, and C-rings (Fig. 6), we began to explore how these modifications affect PKC binding (Fig. 7A), NF-κB activation (Fig. 7B), cell permeation and PKC translocation (Fig. 7, C and D), and latency reversal in J-Lat cells (Fig. 8). […] We conducted this assay with phosphatidyl serine vesicles in solution that mimic the cellular membrane and play a critical role in the binding of small molecules to the PKC C1 domain (Fig. 7A) ([64]).
# (§2) Cell-free PKC Binding Assay
# The protein kinase C (PKC) affinity of EBC-46 and EBC-46 analogs was determined via […]
# entails a glass-fiber filtration method to determine bound radioligand. The method of determining the radioligand Kd is also described.
# (§3) Tris HCl (Fisher, ≥ 99%, stored at room temperature)
# (§4) Phosphatidylserine (Avanti Polar Lipids, porcine, 25 mg/mL CHCl3 solution, stored at - […]
# (§5) Bovine serum albumin (Sigma -Aldrich, ≥ 98%, globulin free, protease free, stored at 4 […]
# Human PKC-β-I-GST fusion protein (Invitrogen, aliquoted and stored at -78 °C) Human PKC-δ-GST fusion protein (Invitrogen, aliquoted and stored at -78 °C) Glass-fiber filters (Whatman GF/B) […]
# (§6) a final concentration of 500 nM.
# (§7) Preparation of phosphatidylserine (PS) vesicles :
# (§8) For every 96 samples, 3.5 mg phosphatidylserine (140 μL) (25 mg/mL CHCl3 solution) was concentrated by removing chloroform under reduced pressure. The phosphatidylserine residue was resuspended in freshly prepared PKC binding assay buffer (3.5 mL), capped, and then thoroughly mixed by alternating between sonicating and vortexing, in 10 second intervals for 1 minute or until a cloudy white mixture (Branson Sonifier 250, power = 2, 50% duty cycle). The resulting cloudy white mixture (1 mg/mL) was stored on ic e until use.
# (§9) Preparation of the "master mix" Solution :
# (§10) Constituent Stock concentration (final concentration/amount in “master mix”):
# (§11) PS vesicles (0.103 mg/mL)
# (§12) Deionized H2O - Final vol of 30 mL
# (§13) Preparation of PKC binding assay buffer:
# (§14) For every 96 samples, to a 50 mL polypropylene tube was added Tris -HCl (pH 7.4, 1 M, 1.5 mL), KCl (1 M, 3 mL), CaCl2 (0.1 M, 35 μL – conventional isoforms only), and bovine serum albumin (60 mg). This mixture was diluted to 30 mL with deionized H2O and mixed gently. The buffer was […]
# (§15) Preparation of PKC isoform solution:
# (§16) For every 96 samples, PKC isoform solution was prepared by dissolving a 4 μg aliquot of the indicated recombinant human PKC isoform into 26.5 mL of PKC binding assay buffer. The diluted PKC was stored on ice for immediate use.
# (§17) Preparation of PKC “master mix” solution:
# (§18) To the PKC-isoform solution was added 1 mg/mL PS vesicles solution (3.30 mL), and 500 nM […]
# (§19) The resulting “master mix” solution was vortexed and stored on […]
# (§20) Preparation of analog compound dilutions:
# (§21) Compound dilutions were prepared with filtered DMSO by serially diluting from a chosen "high" concentration. For the saturation binding experiment (radioligand Kd determination), the maximum radioligand concentration used was 4.0 nM with 2-fold dilutions between data points […]
# (§22) the middle of the binding curve.
# For the competition binding experiment (analog Ki determination), 7 or 14 concentrations were used to define the inhibition curve, and compounds dilutions changed by factors of 2 or √2 between data points. The concentrations were chosen such that the in-assay concentration for the data points in the middle of the binding curve were approximately equal to the IC50 of the compound (if the IC50 is unknown, an exploratory binding assay is recommended prior to Ki determination). For assays with one compound per sheet, the √2-fold dilutions were prepared for the concentrations in […]
# PKC binding assay protocol (Saturation -binding experiment and Competition -binding experiment)
# 1) Glass-fiber filters were prepared by soaking them in a solution of aqueous polyethyleneimine
# PKC-δ = molecular target: T2, PKC-δ (Homo sapiens, UniProt Q05655); test: as above
# T2 construct: purchased Invitrogen (Sinobiological for the SUW402 experiment)
# T2 sequence (Q05655 whole entry): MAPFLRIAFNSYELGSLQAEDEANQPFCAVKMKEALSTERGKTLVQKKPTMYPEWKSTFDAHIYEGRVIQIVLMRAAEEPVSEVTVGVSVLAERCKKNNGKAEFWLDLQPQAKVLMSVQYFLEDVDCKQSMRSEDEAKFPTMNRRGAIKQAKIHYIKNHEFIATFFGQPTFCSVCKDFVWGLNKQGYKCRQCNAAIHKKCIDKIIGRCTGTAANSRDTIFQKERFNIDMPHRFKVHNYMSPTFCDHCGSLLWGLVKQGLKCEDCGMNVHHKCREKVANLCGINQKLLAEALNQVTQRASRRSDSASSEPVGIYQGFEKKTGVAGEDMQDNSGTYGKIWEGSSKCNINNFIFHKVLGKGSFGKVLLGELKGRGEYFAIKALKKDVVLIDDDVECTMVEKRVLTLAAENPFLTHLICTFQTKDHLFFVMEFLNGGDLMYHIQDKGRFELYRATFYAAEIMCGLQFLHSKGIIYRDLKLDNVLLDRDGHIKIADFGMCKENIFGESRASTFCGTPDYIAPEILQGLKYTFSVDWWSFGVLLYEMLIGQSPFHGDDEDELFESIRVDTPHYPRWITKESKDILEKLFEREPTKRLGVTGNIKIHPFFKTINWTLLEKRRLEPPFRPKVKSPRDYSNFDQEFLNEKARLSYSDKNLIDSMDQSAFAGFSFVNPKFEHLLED
# From the text: as §1, §2
# The protein kinase C (PKC) affinity of EBC-46 and EBC-46 analogs was determined via competition with 3H-phorbol-12,13-dibutyrate (3H-PDBu) as described below. This procedure entails a glass-fiber filtration method to determine bound radioligand. The method of determining the radioligand Kd is also described.
# as §3, §4, §5
# Human PKC-β-I-GST fusion protein (Invitrogen, aliquoted and stored at -78 °C) Human PKC-δ-GST fusion protein (Invitrogen, aliquoted and stored at -78 °C) Glass-fiber filters (Whatman GF/B)
# Preparation of 3H -PDBu solution : […]
# as §6, §7, §8, §9, §10, §11, §12, §13, §14, §15, §16, §17, §18, §19, §20, §21
# isoforms ranges from 0.3 – 0.8 nM. […]
# as §22
# For the competition binding experiment (analog Ki determination), 7 or 14 concentrations were used to define the inhibition curve, and compounds dilutions changed by factors of 2 or √2 between data points. The concentrations were chosen such that the in-assay concentration for the data points in the middle of the binding curve were approximately equal to the IC50 of the compound (if the IC50 is unknown, an exploratory binding assay is recommended prior to Ki determination). For assays with one compound per sheet, the √2-fold dilutions were prepared for the concentrations in the middle of the curve (e.g., for SUW400, the analog dilutions used were 15000 nM, 7500 nM, […]
# PKC binding assay protocol (Saturation -binding experiment and Competition -binding experiment) […]
# [1] = HotNM 2.5, HotKdNM 0.37, supplement fit, read-out: Ki (best-fit value), PKC-β-I
# [2] = competition against radiolabeled PDBu, Fig. 7A and text, read-out: Ki PKC-β
# [3] = HotNM 2.5, HotKdNM 0.62, supplement fit, read-out: Ki (best-fit value), PKC-δ
# [4] = competition against radiolabeled PDBu, Fig. 7A and text, read-out: Ki PKC-δ
# [5] = log of Ki in nM, HotNM 2.5, HotKdNM 0.62
Compound,PKC-β selectivity (PKC-β-I),Ki (PKC-β-I; [1]) [nM],PKC binding affinity and selectivity in words (PKC-β-I),Ki (PKC-β-I; [2]),"logKi (best-fit value), PKC-β-I (PKC-β-I; HotNM 2.5, HotKdNM 0.37)",Ki (PKC-δ; [3]) [nM],Ki (PKC-δ; [4]) [nM],"logKi (best-fit value), PKC-δ (PKC-δ; [5])",selectivity for PKC-β over PKC-δ (PKC-β-I) [fold],decrease in PKC binding affinity / potency compared to EBC-46 (PKC-β-I),"logKi (best-fit value), PKC-δ (PKC-δ; HotNM 5, HotKdNM 0.72)","Ki (PKC-δ; HotNM 5, HotKdNM 0.72, read-out: Ki (best-fit value), PKC-δ) [nM]"
CC[C@H](C)C(=O)O[C@@]12[C@H](OC(=O)C3(C)CC3)[C@@H](C)[C@@]3(O)[C@H]([C@@H]1C2(C)C)[C@@H]1O[C@]1(CO)[C@@H](O)[C@]1(O)C(=O)C(C)=C[C@H]13 [SUW413],3.9,2.45,very similar binding affinity to both PKC-β and PKC-δ compared to SUW406,2.5 nM,0.3892,9.66,9.7,0.9851,–,–,–,–
C/C=C(\C)C(=O)O[C@@H]1[C@@H](C)[C@@]2(O)[C@H]([C@@H]3C(C)(C)[C@]13OC(=O)N1CCCC1)[C@@H]1O[C@]1(CO)[C@@H](O)[C@]1(O)C(=O)C(C)=C[C@H]12 [SUW421],9.5,20.1,–,20 nM and ~25 nM,1.302,194,190,2.288,10,> 10 fold,–,–
C/C=C(\C)C(=O)O[C@@H]1[C@@H](C)[C@]2(O)[C@@H]3C=C(C)[C@H](OC(=O)c4ccccc4)[C@@]3(O)[C@H](O)C(CO)=C[C@H]2[C@@H]2C(C)(C)[C@]12OC(=O)[C@@H](C)CC [SUW422],2.1,1.49,nearly identical binding potency and selectivity to EBC-46,1.5 nM,0.1731,3.04,–,0.4832,–,–,–,–
CC[C@H](C)C(=O)O[C@@]12[C@H](OC(=O)N3CCCC3)[C@@H](C)[C@@]3(O)[C@H]([C@@H]1C2(C)C)[C@@H]1O[C@]1(CO)[C@@H](O)[C@]1(O)C(=O)C(C)=C[C@H]13 [SUW424],6.1,27.8,–,28 nM and ~25 nM,1.445,175,170,2.242,6,> 10 fold,–,–
C/C=C(\C)C(=O)O[C@@H]1[C@@H](C)[C@]2(O)[C@@H]3C=C(C)[C@H](OC(=O)C=C(C)C)[C@@]3(O)[C@H](O)C(CO)=C[C@H]2[C@@H]2C(C)(C)[C@]12OC(=O)[C@@H](C)CC [SUW425],1.8,2.61,approximately the same as EBC-46,2.6 nM,0.4165,4.73,4.7,0.6748,–,–,–,–
CC=C(C)C(=O)OC1C(C)C2(O)C(C3OC3(COC)C(O)C3(O)C(=O)C(C)=CC32)C2C(C)(C)C12OC(=O)C(C)CC (stereo not shown) [SUW426],1.8,396,–,400 nM,2.598,–,700,–,–,approximately 250 fold,2.846,702
